From patent US10633407B2, “14-membered ketolides and methods of their preparation and use” (President and Fellows of Harvard College, priority 2014, dated 2020)
In brackets after ≈: the same amount, converted by molar mass.

How the values were obtained:
Test in all cases: CLSI broth dilution MIC determination
Assay type in all cases: cell-based
S. pyogenes ATCC 19615 = conditions: Streptococcus pyogenes, ATCC19615, S. pyogenes ATCC 19615 (MP-19); read-out: MIC
K. pneumoniae KPC-2 = conditions: Klebsiella pneumoniae, KPC2, read-out: MIC
E. faecalis ATCC 29212 = conditions: Enterococcus faecalis, ATCC29212, E. faecalis ATCC 29212 (MP-24); read-out: MIC
[1] = tested on: S. pyogenes Macrolide-resistant; conditions: Streptococcus pyogenes, S. pyogenes Macrolide-resistant (MP-625 UNT-014); read-out: MIC
[2] = tested on: A. baumannii chromosomal class C; conditions: Acinetobacter baumannii, read-out: MIC
A. baumannii IMP-4 = conditions: Acinetobacter baumannii, IMP4, read-out: MIC
[3] = tested on: A. baumannii imipenem-resistant; conditions: Acinetobacter baumannii, read-out: MIC
E. coli NDM-1 = conditions: Escherichia coli, NDM1, read-out: MIC
Outline: (§1)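 Compounds are serially diluted in broth per CLSI standard methods to give the MIC; azithromycin and solithromycin act as comparator macrolides in many cases, and resistance genotypes may be inducible or constitutive.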

S. aureus erm A genotype = conditions: Staphylococcus aureus; S. aureus erm A genotype (MP-620 UNT-146); read-out: MIC
Outline: as §1

S. aureus USA600, GISA = conditions: Staphylococcus aureus; S. aureus USA600, GISA (MP-619 UNT-120); read-out: MIC
Outline: as §1

S. pneumoniae ATCC 49619 = conditions: Streptococcus pneumoniae, ATCC49619, S. pneumoniae ATCC 49619 (MP-21); read-out: MIC
Outline: as §1

[4] = tested on: S. pneumoniae erm B + tet(M,O) genotype; conditions: Streptococcus pneumoniae
Outline: as §1

E. coli ATCC 25922 = conditions: Escherichia coli, ATCC25922, E. coli ATCC 25922 (MP-4); read-out: MIC
Outline: as §1

E. coli TEM-1 = conditions: Escherichia coli, TEM1
Outline: as §1

K. pneumoniae TEM-10 = conditions: Klebsiella pneumoniae, TEM10, read-out: MIC
E. coli CTX-M-14 = conditions: Escherichia coli, CTXM14, read-out: MIC
Outline: as §1

S. aureus MRSA: USA300 = conditions: Staphylococcus aureus; S. aureus MRSA: USA300 (MP-549, msr(a)); read-out: MIC
Outline: as §1

S. aureus MRSA: USA100 = conditions: Staphylococcus aureus; S. aureus MRSA: USA100 (MP-618 UNT-096); read-out: MIC
Outline: as §1

H. influenzae ATCC49247 = conditions: Haemophilus influenzae, read-out: MIC
Outline: as §1

[5] = tested on: S. pneumoniae mef A genotype (second strain so labelled); conditions: Streptococcus pneumoniae, second strain (MP-627 UNT-039), read-out: MIC
Outline: as §1

S. aureus ATCC 29213 = conditions: Staphylococcus aureus, ATCC29213; S. aureus ATCC 29213 (MP-12); read-out: MIC
Outline: as §1

[6] = tested on: S. pneumoniae erm B + mef A genotype; conditions: Streptococcus pneumoniae
Outline: as §1

[7] = tested on: S. pneumoniae mef A genotype (first strain so labelled); conditions: Streptococcus pneumoniae, first strain (MP-626 UNT-038)
Outline: as §1

A. baumannii ATCC 19606 = conditions: Acinetobacter baumannii, ATCC19606; A. baumannii ATCC 19606 (MP-15); read-out: MIC
[8] = tested on: E. faecalis Vancomycin-resistant; conditions: Enterococcus faecalis, E. faecalis Vancomycin-resistant (UNT-039); read-out: MIC
K. pneumoniae SHV-12 = conditions: Klebsiella pneumoniae, SHV12, read-out: MIC
[9] = tested on: P. aeruginosa HPA101-1477; conditions: Pseudomonas aeruginosa, HPA1011477, read-out: MIC
[10] = tested on: H. influenzae Erythro >4, Azithro 1; conditions: Haemophilus influenzae; read-out: MIC
Description: MIC data was collected for the novel macrolides that this platform has produced against over 21 unique strains of B. subtilis, E. coli, S. aureus, S. pneumoniae, and H. influenzae, including several multidrug-resistant strains, with a special focus on macrolide resistant mechanisms (vide supra). […] CLSI standard procedures for broth dilution MIC determination were used. […] These genotypes can be constitutive or inducible.

P. aeruginosa ATCC 27853 = conditions: Pseudomonas aeruginosa, ATCC27853; P. aeruginosa ATCC 27853 (MP-3); read-out: MIC
K. pneumoniae ATCC 10031 = conditions: Klebsiella pneumoniae, ATCC10031, K. pneumoniae ATCC 10031 (MP-14); read-out: MIC

| Compound | MIC (S. pyogenes ATCC 19615) | MIC (K. pneumoniae KPC-2) | MIC (E. faecalis ATCC 29212) | MIC [1] | MIC [2] | MIC (A. baumannii IMP-4) | MIC [3] | MIC (E. coli NDM-1) | MIC (S. aureus erm A genotype) | MIC (S. aureus USA600, GISA) | MIC (S. pneumoniae ATCC 49619) | MIC [4] | MIC (E. coli ATCC 25922) | MIC (E. coli TEM-1) | MIC (K. pneumoniae TEM-10) | MIC (E. coli CTX-M-14) | MIC (S. aureus MRSA: USA300) | MIC (S. aureus MRSA: USA100) | MIC (H. influenzae ATCC49247) | MIC [5] | other results |
| --- | --- | --- | --- | --- | --- | --- | --- | --- | --- | --- | --- | --- | --- | --- | --- | --- | --- | --- | --- | --- | --- |
| CC[C@H]1OC(=O)[C@@](C)(F)C(=O)[C@H](C)[C@@H](O[C@@H]2OC(C)CC(N(C)C)C2O)[C@](C)(OC)C[C@@H](C)C(=O)C[C@H]2N(CCCCn3cc(-c4cccc(N)c4)nn3)C(=O)O[C@]12C (stereo partly drawn) [FSM-21598] | ≤ 0.0312 µg/mL | > 32 µg/mL | ≤ 0.0312 µg/mL | 0.25 µg/mL (≈ 0.301 µM) | 32 µg/mL (≈ 38.5 µM) | > 32 µg/mL | > 32 µg/mL | > 32 µg/mL | > 32 µg/mL | > 32 µg/mL | ≤ 0.0312 µg/mL | ≤ 0.0312 µg/mL | > 32 µg/mL | > 32 µg/mL | > 32 µg/mL | > 32 µg/mL | 32 µg/mL (≈ 38.5 µM) | > 32 µg/mL | 4 µg/mL (≈ 4.81 µM) | 0.25 µg/mL (≈ 0.301 µM) | MIC (S. aureus ATCC 29213): 32 µg/mL (≈ 38.5 µM); MIC [6]: 8 µg/mL (≈ 9.63 µM); MIC [7]: ≤ 0.0312 µg/mL; MIC (A. baumannii ATCC 19606): > 32 µg/mL; MIC [8]: > 32 µg/mL; MIC (K. pneumoniae SHV-12): > 32 µg/mL; MIC [9]: > 32 µg/mL; MIC [10]: 8 µg/mL (≈ 9.63 µM); MIC (P. aeruginosa ATCC 27853): > 32 µg/mL; MIC (K. pneumoniae ATCC 10031): 8 µg/mL (≈ 9.63 µM) |
| C=C1C(=O)[C@H](C)C[C@@](C)(OC)[C@H](O[C@@H]2OC(C)CC(N(C)C)C2O)[C@@H](C)C(=O)[C@@H](C)C(=O)O[C@H](CC)[C@@]2(C)OC(=O)N(CCCCn3cc(-c4cccc(N)c4)nn3)[C@H]12 (stereo partly drawn) [FSM-21828] | ≤ 0.0312 µg/mL | > 32 µg/mL | 1 µg/mL (≈ 1.21 µM) | 0.5 µg/mL (≈ 0.606 µM) | > 32 µg/mL | > 32 µg/mL | > 32 µg/mL | > 32 µg/mL | > 32 µg/mL | > 32 µg/mL | ≤ 0.0312 µg/mL | ≤ 0.0312 µg/mL | > 32 µg/mL | > 32 µg/mL | > 32 µg/mL | > 32 µg/mL | > 32 µg/mL | > 32 µg/mL | 16 µg/mL (≈ 19.4 µM) | 0.5 µg/mL (≈ 0.606 µM) | MIC (S. aureus ATCC 29213): 4 µg/mL (≈ 4.85 µM); MIC [6]: 32 µg/mL (≈ 38.8 µM); MIC [7]: 0.0625 µg/mL (≈ 0.0758 µM); MIC (A. baumannii ATCC 19606): > 32 µg/mL; MIC [8]: > 32 µg/mL; MIC (K. pneumoniae SHV-12): > 32 µg/mL; MIC [9]: > 32 µg/mL; MIC [10]: 16 µg/mL (≈ 19.4 µM); MIC (P. aeruginosa ATCC 27853): > 32 µg/mL; MIC (K. pneumoniae ATCC 10031): 16 µg/mL (≈ 19.4 µM) |
| CC[C@H]1OC(=O)[C@@H](C)C(=O)[C@H](C)[C@@H](O[C@@H]2OC(C)CC(N(C)C)C2O)[C@](C)(OC)C[C@@H](C)C(=O)[C@H](C)[C@H]2N(C/C=C/Cn3cc(-c4cccc(N)c4)nn3)C(=O)O[C@]12C (stereo partly drawn) [FSM-100432] | < 0.0312 µg/mL | > 32 µg/mL | 0.125 µg/mL (≈ 0.152 µM) | 0.0625 µg/mL (≈ 0.0758 µM) | > 32 µg/mL | > 32 µg/mL | > 32 µg/mL | > 32 µg/mL | > 32 µg/mL | > 32 µg/mL | < 0.0312 µg/mL | < 0.0312 µg/mL | > 32 µg/mL | > 32 µg/mL | > 32 µg/mL | > 32 µg/mL | > 32 µg/mL | > 32 µg/mL | 8 µg/mL (≈ 9.7 µM) | 0.5 µg/mL (≈ 0.606 µM) | MIC (S. aureus ATCC 29213): 1 µg/mL (≈ 1.21 µM); MIC [6]: 2 µg/mL (≈ 2.42 µM); MIC [7]: 0.125 µg/mL (≈ 0.152 µM); MIC (A. baumannii ATCC 19606): > 32 µg/mL; MIC [8]: > 32 µg/mL; MIC (K. pneumoniae SHV-12): > 32 µg/mL; MIC [9]: > 32 µg/mL; MIC [10]: 8 µg/mL (≈ 9.7 µM); MIC (P. aeruginosa ATCC 27853): > 32 µg/mL; MIC (K. pneumoniae ATCC 10031): 32 µg/mL (≈ 38.8 µM) |
